Counter-ions that a name gives are not always drawn.
Columns and labels:
HT 29 = assay: Growth inhibition test (MTT) for cytotoxic properties; assay type: cell-based, human; details: Table 1a, glycoconjugates of batracyline
Experimental: (§1) Growth Inhibition Test for Determination of the Cytotoxic Properties of Glycoconjugates of Batracyline and of Quinolone-a
(§2) The human colon cell lines SW 480 and HT 29 (ATCC no. CCL 228 and HBT-38) and the mouse melanoma cell line B 16 F 10 were cultured in Roux dishes in RPMI 1640 medium with addition of 10% FCS. The cultures were then trypsinized and taken up in RPMI plus 10% FCS to a cell count of 50,000 cells/ml. 100 μl of cell suspension/well were introduced into a 96 microwell plate and incubated for 1 day at 37° C. in a CO2 incubating cabinet. A further 100 μl of RPMI medium and 1 μl of dimethyl sulphoxide with the test substances were then added. The growth was checked after day 3 and day 6. 40 μl of MTT solution (3-(4,5-dimethylthiazol-2-yl)-2,5-diphenyltetrazoline bromide) with an initial concentration of 5 mg/ml of H2 O were added to each microwave. The plate was incubated for 5 hours in a CO2 incubating cabinet at 37° C. The medium was then sucked off and 100 μl of i-propanol/well were added. After shaking for 30 minutes with 100 μl of H2 O, the extinction was measured at 540 nm with a Titertek Multiskan MCC/340 (Flow).
(§3) The cytotoxic action of the glycoconjugates of batracyline described is shown in Table 1a as the IC50 value in each case for the SW 480 and HT 29 cell lines.

SW 480 = assay: as above; assay type: cell-based, human; details: Table 1a, glycoconjugates of batracyline
Experimental: as §1, §2, §3

| Molecule | IC50 (HT 29) [µM] | IC50 (SW 480) [µM] |
| --- | --- | --- |
| CO[C@@H]1[C@@H](O)[C@H](Oc2ccc(NC(=S)N[C@@H](CCCCN)C(=O)N[C@H](C)C(=O)Nc3ccc4c(c3)CN3C(=O)c5ccccc5C3=N4)cc2)O[C@H](CO)[C@@H]1OC [Example 4.5, N-{N^α -[O-(3,4-Di-O-methyl-β-D-galactopyranosyl)-4-hydroxy-phenylamino-thiocarbonyl]-lysyl-D-alanyl}-batracyline] | 15 | 15 |
| COC1C(O)C(C)OC(Oc2ccc(NC(=S)NCCCCC(NC(=S)Nc3ccc(OC4OC(C)C(O)C(OCC(=O)O)C4O)cc3)C(=O)NC(C)C(=O)Nc3ccc4nc5n(c(=O)c4c3)Cc3ccccc3-5)cc2)C1O [Example 5.1, N-{N^α -[O-(3-O-Carboxymethyl-β-L-fucosyl)-4-hydroxyphenylaminothiocarbonyl] -N^ε -[O-(3-O-methyl-β-L-fucosyl)-4-hydroxyphenylaminothiocarbonyl]-lysyl-D-alanyl}-batracyline] | 45 | 55 |
| COC1C(C)OC(Oc2ccc(NC(=S)NCCCCC(NC(=S)Nc3ccc(OC4OC(C)C(OC)C(O)C4O)cc3)C(=O)NC(C)C(=O)Nc3ccc4nc5n(c(=O)c4c3)Cc3ccccc3-5)cc2)C(O)C1O [Example 6.3, N-{N^α,N^ε -Bis-[O-(4-O-methyl-β-L-fucosyl)-4-hydroxy-phenylamino-thiocarbonyl]-lysyl-D-alanyl}-batracyline] | 105 | 70 |
| O=C(O)CO[C@H]1[C@@H](O)[C@@H](CO)O[C@@H](Oc2ccc(NC(=S)NCCCC[C@H](NC(=S)Nc3ccc(O[C@@H]4O[C@H](CO)[C@H](O)[C@H](OCC(=O)O)[C@H]4O)cc3)C(=O)Nc3ccc4nc5n(c(=O)c4c3)Cc3ccccc3-5)cc2)[C@@H]1O [Example 6.28, N-{N^α,N^ε -Bis-[O-(3-O-carboxymethyl-β-D-galactopyranosyl)-4-hydroxy-phenylamino-thiocarbonyl]-lysyl}-batracyline, di-sodium salt] | 25 | 40 |
| NC(=O)COC1C(O)C(CO)OC(Oc2ccc(NC(=S)NCCCCC(NC(=S)Nc3ccc(OC4OC(CO)C(O)C(OCC(N)=O)C4O)cc3)C(=O)Nc3ccc4nc5n(c(=O)c4c3)Cc3ccccc3-5)cc2)C1O [Example 6.29, N-{N^α,N^ε -Bis-[O-(3-O-carbamoylmethyl-β-D-galactopyranosyl)-4-hydroxy-phenylamino-thiocarbonyl]-lysyl}-batracyline] | 130 | 95 |
| COC1C(O)C(C)OC(Oc2ccc(NC(=S)Nc3ccc4c(c3)Cn3c-4nc4ccccc4c3=O)cc2)C1O [Example 7.7, N-[O-(3-O-Methyl-β-L-fucosyl)-4-hydroxy-phenylamino-thiocarbonyl]-batr acyline] | > 250 | 100 |
| N-{N-(O-(3-O-Methyl-β-L-fucosyl)-4-hydroxy-phenylamino-thiocarbonyl]-D -alanyl}-batracyline [Example 7.1] | 40 | 40 |
| N-{N-[O-(3,4-Di-O-methyl-β-D-galactopyranosyl)-4-hydroxy-phenylamino-t hio-carbonyl]-D-alanyl}-batracyline [Example 7.8] | 30 | 40 |
| N-{N-[O-(3-O-Carbamoylmethyl-β-D-galactopyranosyl)-4-hydroxy-phenylami no-thiocarbonyl]-D-alanyl}-batracyline [Example 7.12] | 10 | 10 |
| N-{N-[O-(3-O-Carboxymethyl-β-D-galactopyranosyl)-4-hydroxy-phenylamino -thiocarbonyl]-D-alanyl}-batracyline, sodium salt [Example 7.11] | 25 | 30 |
| N-{N-[O-(3-O-Carboxymethyl-β-L-fucosyl)-4-hydroxy-phenylamino-thiocarb onyl]-D-alanyl}-batracyline, sodium salt [Example 7.2] | 30 | 40 |
| N-{N-[O-(α-D-Mannopyranosyl)-4-hydroxy-phenylamino-thiocarbonyl]-lysy l-D-alanyl}-batracyline [Example 4.11] | 15 | 15 |
| N-{N^α -[-(3-O-Carbamoylmethyl-β-D-galactopyranosyl)-4-hydroxy-phenylamino-t hiocarbonyl]-lysyl-D-alanyl}-batracyline [Example 4.10] | 30 | 30 |
| N-{N^α -[-(3-O-Carboxymethyl-β-D-galactopyranosyl)-4-hydroxy-phenylaminothio carbonyl]-N^ε -[O-(3,4-di-O-methyl-β-D-galactopyranosyl)-4-hydroxy-phenylamino-thio carbonyl]-lysyl-D-alanyl}-batracyline, sodium salt [Example 5.13] | 40 | 20 |
| N-{N^α -[O-(3,4-Di-O-methyl-β-D-galactopyranosyl)-4-hydroxy-phenylamino-thio carbonyl]-N^ε -[O-(3-O-(piperidyl-N)-carbonylmethyl-β-D-galactopyranosyl)-4-hydroxy -phenylamino-thiocarbonyl]-lysyl-D-alanyl}-batracyline [Example 5.15] | 70 | > 250 |
| N-{N^α -[O-(3,4-Di-O-methyl-β-D-galactopyranosyl)-4-hydroxy-phenylamino-thio carbonyl]-N^ε -[O-(3-O-carbamoylmethyl-β-D-galactopyranosyl)-4-hydroxy-phenylamino- thiocarbonyl]-lysyl-D-alanyl}-batracyline [Example 5.21] | 80 | 60 |

| Molecule | IC50 (HT 29) [µM] | IC50 (SW 480) [µM] |
| --- | --- | --- |
| N-{N^α,N^ε -Bis-[O-(3,4-di-O-methyl-β-D-galactopyranosyl)-4-hydroxy-phenylamino- thiocarbonyl]-lysyl-alanyl}-batracyline [Example 6.85] | – | 22 |
| N-{N^α,N^ε -Bis-[O-(3-O-carbamoylmethyl-β-D-galactopyranosyl)-4-hydroxy-phenylam ino-thiocarbonyl]-lysyl-seryl}-batracyline [Example 6.35] | – | 20 |
| N-{N^α,N^ε -Bis-[O-(3-O-carboxymethyl-β-D-galactopyranosyl)-4-hydroxy-phenylamin o-thiocarbonyl]-lysyl-seryl}-batracyline, di-sodium salt [Example 6.34] | – | 50 |
| N-{N^α,N^ε -Bis-[O-(3-O-carboxymethyl-β-L-fucosyl)-4-hydroxy-phenylamino-thiocar bonyl]-lysyl-diaminopropionyl}-batracyline, di-sodium salt [Example 6.21] | – | 150 |
| N-{N^α,N^ε -Bis-[O-(3-O-methyl-β-L-fucosyl)-4-hydroxy-phenylamino-thiocarbonyl]- lysyl-diaminopropionyl}-batracyline [Example 6.20] | – | 80 |
| N-{N^ε -[4-Hydroxyethylamino-2-[O-(2-O-methyl-β-L-fucosyl)-4-hydroxy-phenyla mino]-triazin-6-yl]-lysyl-alanyl}-batracyline, trifluoroacetate [Example 8.11] | – | 45 |
| N-{N^ε -[-(3-O-Carbamoylmethyl-β-D-galactopyranosyl)-4-hydroxy-phenylamino-t hiocarbonyl]-lysyl-D-alanyl}-batracyline, trifluoroacetate [Example 3.19] | – | 75 |
| N-{N^ε -[O-(3-O-(N-Propyl-carbamoylmethyl)-β-D-galactopyranosyl)-4-hydroxy-p henylamino-thiocarbonyl]-lysyl-D-alanyl}-batracyline, trifluoroacetate [Example 3.21] | – | 90 |
| N-{N^ε -[O-(3-O-Carbamoylmethyl-α-D-mannopyranosyl)-4-hydroxy-phenylamino-t hiocarbonyl]-lysyl-D-alanyl}-batracyline, trifluoroacetate [Example 3.30] | – | > 250 |
| N-{N^ε -[O-(3-O-Carboxymethyl-α-D-mannopyranosyl)-4-hydroxy-phenylamino-thi ocarbonyl]-lysyl-D-alanyl}-batracyline, trifluoroacetate [Example 3.29] | – | 110 |
| N-{N^ε -[O-(3-O-Carboxymethyl-β-D-galactopyranosyl)-4-hydroxy-phenylamino-th iocarbonyl]-lysyl-D-alanyl}-batracyline, trifluoroacetate [Example 3.18] | – | 15 |
| N-{N^ε -[O-(3-O-Methoxycarbonylmethyl-α-D-mannopyranosyl)-4-hydroxy-phenyla mino-thiocarbonyl]-lysyl-D-alanyl}-batracyline, trifluoroacetate [Example 3.28] | – | 60 |
| N-{N^ε -[O-(3-O-Methyl-β-D-galactopyranosyl)-4-hydroxy-phenylamino-thiocarbo nyl]-lysyl-D-alanyl}-batracyline, trifluoroacetate [Example 3.14] | – | 40 |
| N-{N^ε [O-(3-O-Methyl-α-D-mannopyranosyl)-4-hydroxy-phenylamino-thiocarbony l]-lysyl-D-alanyl}-batracyline, trifluoroacetate [Example 3.26] | – | 50 |
| N-{N^ε-[O-( 3,4-Dideoxy-β-D-galactopyranosyl)-4-hydroxy-phenylamino-thiocarbonyl] -lysyl-D-alanyl}-batracyline, trifluoroacetate [Example 3.23] | – | 50 |

From US6271342A, “Sugar-modified cytostatics” (Bayer Aktiengesellschaft, priority 1995, dated 2001)
